According to patent US3966793A (priority 1964, dated 1976):
Like-named read-outs stand apart in the source and are kept apart here.

Tests used:
rat [1] = assay: Benzedrine provoked motor activity (R); format: in vivo; conditions: PO, read-out: Benzedrine provoked motor activity, 50% effective dose
Source text: (§1) 6. Spontaneous motor activity in the rat and mouse and provoked motor activity
(§2) The effect of drugs on voluntary movements of animals can be studied statistically by methods, the details of which will not be discussed here. The mouse, which is an extremely lively animal and moves about a great deal, is particularly suitable for this type of experiment.
(§3) Moreover, this spontaneous mobility can be exacerbated by preventive administration to the animals of certain substances such as benzedrine, mescaline and ritaline.
(§4) The experimental results obtained by these methods give valuable information for clinical purposes with regard to the treatment of ambulatory psychomotor crises.

mice [2] = assay: Anti-convulsant activity (anti-pentetrazole) (mice); format: in vivo; conditions: mouse, pentetrazole 125 mg./kg. IP, read-out: Anti-pentetrazole, 50% effective dose
Description: 3. Anti-convulsant activity (anti-pentetrazole) (mice)
Pentetrazole, injected intraperitoneally in a dose of 125 mg./kg. produces fatal convulsions in 100% of the animals.
Certain compounds exert a protective action preventing convulsions and permitting survival.

mouse [3] = assay: Potentiation of narcosis (M); format: in vivo; conditions: PO, read-out: Narcotic potentiation, 50% effective dose
Source text: 12. Potentiation of narcosis
Most psycholeptics are hypnotics in large doses, but many of them can, in small doses, without themselves producing any hypnosis, either prolong the time of sleep obtained with a true hypnotic (for example a barbiturate) or appreciably lower the dose of barbiturate required to obtain sleep.

central nervous system = assay: Pharmacodynamic / central nervous system tests taken together; format: in vivo
Source text: A certain number of the compounds described in the present application have been studied with regard to their action on the central nervous system, as psycholeptics, myorrelaxants and tranquilizers. In addition, the acute toxicity has been determined for a number of these compounds.
It has thereby been possible to make quantitative comparisons of the activity of the different compounds for the different tests employed.

mouse [4] = assay: Morphine excitation (M); format: in vivo; conditions: PO, read-out: Morphine excitation, 50% effective dose
Source text: In the mouse, the action of morphine is different but also manifested by marked central excitation.

mice [5] = assay: Anti-convulsant activity (electric shock) (mice); format: in vivo; conditions: for ED50: Mus musculus, read-out: Electric shock, 50% effective dose
Source text: 4. Anti-convulsant activity (electric shock) (mice)
The test consists in determining the intensity of the electric current required to produce a fatal shock in a batch of test animals.
Certain preventively administered compounds effectively protect a certain percentage of animals subjected to an electric current of an intensity which is fatal to untreated animals.

mouse [6] = assay: Ritaline provoked motor activity (M); format: in vivo; conditions: PO, read-out: Ritaline provoked motor activity, 50% effective dose
Source text: as §1, §2, §3, §4

mice [7] = assay: Balance test: rotating rod (mice) (Equilibration); format: in vivo; conditions: for ED50: Mus musculus, read-out: Equilibration, 50% effective dose
Source text: 2. Balance test: rotating rod (mice)
This test consists in observing whether the treated animals are capable of maintaining their balance on a horizontal rod kept in rotation.
Numerous neuroleptic compounds or tranquilizers disturb the equilibration reflex.

mouse [8] = assay: Spontaneous motor activity in the mouse; format: in vivo; conditions: for ED50: Mus musculus, read-out: Spontaneous motor activity, 50% effective dose
Source text: as §1, §2

cats = assay: Aggressiveness (cat/mouse); format: in vivo; conditions: Felis catus, SC, read-out: Aggressiveness, 50% effective dose
Source text: 9. Aggressiveness (cat/mouse)
In general, 75 to 80% of cats are aggressive when confronted with white mice. Psycholeptics and tranquilizers may make the cat indifferent and sometimes even amiable to the mouse. Similarly, in the case of cats that are furious and aggressive in relation to humans, diminution or suppression of the instinctive fear and establishment of a climate of confidence are observed.

[9] = Reaction (pH) of aqueous solution; format: physicochemical
Acute toxicity (M) LD 50 = conditions: in vivo, mouse
mice [10] = assay: Exploration test (mice); format: in vivo; conditions: for ED50: Mus musculus, read-out: Exploration, 50% effective dose
Description: 5. Exploration test (mice)
This extremely simple test consists in placing a mouse at the center of a floor pierced with holes and in noting how many holes the mouse explores in 5 minutes. This test is carried out in a room in which complete silence is observed and which contains no person except the experimenter who is seated and still. It appeals to the curiosity of the animals. The doses of the compounds employed are, however, very small and considerably less than those required to impair movement. This simple test makes it possible to observe whether the compounds assayed produce a more or less pronounced lack of interest in the environment and it gives information which is interesting from the clinical point of view with regard to the treatment of anxiety and restlessness.

mouse [11] = assay: Mescaline provoked motor activity (M); format: in vivo; conditions: PO, read-out: Mescaline provoked motor activity, 50% effective dose
Source text: as §1, §2, §3, §4

mouse [12] = assay: Antistrychnine activity; format: in vivo; conditions: po, read-out: Anti-strychnine, 50% effective dose
Source text: 7. Antistrychnine activity

male rat = assay: Combativeness (rat); format: in vivo; conditions: for ED50: rat, read-out: Combativeness, 50% effective dose
Source text: It is possible to make a male rat aggressive towards another male rat enclosed in the same cage by passing an electric current of more or less high voltage through the floor of the cage.
This test, like the preceding one, can obviously give information of clinical value for the treatment of aggression diseases.

cat = assay: Morphine crisis (C); format: in vivo; conditions: Felis catus, SC, read-out: Morphine crisis, 50% effective dose
Source text: In the cat, morphine produces a specific state of excitation with hallucinations which can be attenuated or suppressed by certain psycholeptic drugs.

mice [13] = assay: Traction test (mice), myorelaxant activity; format: in vivo; conditions: for ED50: Mus musculus, read-out: Traction, 50% effective dose
Source text: This consists in observing when the treated animals are capable of retrieving a rod grasped by the front paws only. Inability to carry this out was interpreted as a sign of myorelaxant activity.

mouse [14] = assay: Benzedrine provoked motor activity (M); format: in vivo; conditions: PO, read-out: Benzedrine provoked motor activity, 50% effective dose
Source text: as §1, §2, §3, §4

rat [15] = assay: Spontaneous motor activity in the rat; format: in vivo; conditions: for ED50: Rattus norvegicus, read-out: Spontaneous motor activity, 50% effective dose
Source text: as §1, §2

rats = assay: Double box conditioning test (R); format: in vivo; conditions: rat
Source text: The test used consists in educating rats to avoid an electric current passed through the floor of a cage of two compartments when they change compartments. The animal is first warned by a lamp which lights up in the compartment through which the current is passing while the other is in relative darkness.
This test, which requires more or less daily training at the rate of 50 times for each rat, makes it possible to follow the animals and note their progress. The performances realized at the end of a certain time (3 weeks to 1 month of training) are fairly constant, the percentage of errors made by adequately gifted subjects being less than 10 and very often even zero.
One would imagine that disturbances produced in these performances which call upon the memory of animals would be of great importance for the choice of a new medicament. A deconditioning drug of sufficient intensity could have the result of partly depriving the patient of the idea of danger and would consequently require special surveillance of the sick persons.

[16] = Stability in aqueous solution; format: physicochemical; conditions: compound A obtained

| Compound | ED50 (rat [1]) [mg/kg] | ED50 (mice [2]; PO) [mg/kg] | ED50 (mouse [3]) [mg/kg] | ED50 (mouse [4]) [mg/kg] | ED50 (mice [5]; po) [mg/kg] | ED50 (mouse [6]) [mg/kg] | ED50 (mice [7]; po) [mg/kg] | ED50 (mouse [8]; po) [mg/kg] | ED50 (cats) [mg/kg] | Reaction / pH of aqueous solution [9] | LD50 (Acute toxicity (M) LD 50; IP) [mg/kg] | LD50 (Acute toxicity (M) LD 50; PO) [mg/kg] | ED50 (mice [10]; po) [mg/kg] | ED50 (mouse [11]) [mg/kg] | ED50 (mouse [12]) [mg/kg] | ED50 (male rat; PO) [mg/kg] | ED50 (cat) [mg/kg] | ED50 (mice [13]; po) [mg/kg] | Solubility in water (Solubility) | ED50 (rat [15]; po) [mg/kg] | other results |
| --- | --- | --- | --- | --- | --- | --- | --- | --- | --- | --- | --- | --- | --- | --- | --- | --- | --- | --- | --- | --- | --- |
| O=C(O)C1N=C(c2ccccc2)c2cc(Cl)ccc2NC1=O.[K+].[K+].[OH-].[OH-] (stereo not drawn) [4306 CB, 7-Chloro-2,3-dihydro-2-oxo-5-phenyl-1H-benzo[f]-1,4-diazepine-3-carboxylic acid, monopotassium salt, monopotassium hydroxide] | > 100 | 1.7 | 2 | 50 | 4.6 | 20 | 14 | 5 | 25 | strongly alkaline in reaction | 250 | 700 | 4 | 20 | 25 | < 25 | 25 | 1.1 | completely soluble in water | < 25 | Activity compared with diazepame (central nervous system; most of the tests): highly active and in most of the tests, it is at least equal and frequently superior to diazepame; Pharmacodynamic comparison of products obtained by the two methods (central nervous system; saponification of benzodiazepine ester or of imine diester): pharmacodynamic studies confirm the identity of the products obtained by the two methods; Electric shock, 50% effective dose (mice [5]; mouse, PO, listed as Ca 2053): 3 mg/kg; Equilibration, 50% effective dose (mice [7]; mouse, PO, listed as Ca 2053): 9.6 mg/kg; Spontaneous motor activity, 50% effective dose (mouse [8]; PO, listed as Ca 2053): 10 mg/kg; Exploration, 50% effective dose (mice [10]; mouse, PO, listed as Ca 2053): 6.25 mg/kg; Traction, 50% effective dose (mice [13]; mouse, PO, listed as Ca 2053): 1.25 mg/kg; ED50 (mouse [14]): > 20 mg/kg; Spontaneous motor activity, 50% effective dose (rat [15]; PO, listed as Ca 2053): 25 mg/kg |
| O=C([O-])C1N=C(c2ccccc2)c2cc(Cl)ccc2NC1=O.[K+] (stereo not drawn) [4311 CB, 7-Chloro-2,3-dihydro-2-oxo-5-phenyl-1H-benzo[f]-1,4-diazepine-3-carboxylic acid, potassium salt] | 50 | 1.65 | 2 | 20 | – | – | 5 | 10 | – | substantially neutral reaction | 310 | 870 | – | 20 | 20 | 25 | – | 1.35 | completely soluble in water | 50 | ED50 (mice [2]; IP): 2.9 mg/kg; Activity compared with 4306 (central nervous system; in vivo): highly active but slightly less so than 4306; Activity, parenteral compared with oral administration (central nervous system; parenteral vs oral): slightly less when administered parenterally than when administered orally; ED50 (mice [5]; ip): 2.6 mg/kg; ED50 (rats; PO, read-out: Double box conditioning, 50% effective dose): 10 mg/kg; ED50 (mice [7]; ip): 4.5 mg/kg; ED50 (mouse [8]; ip): 25 mg/kg; Decarboxylation on heating an aqueous solution [16]: decarboxylated within a few minutes; LD50 (Acute toxicity (M) LD 50; IV): 220 mg/kg; LD50 (Acute toxicity (M) LD 50; SC): 450 mg/kg; ED50 (mice [10]; ip): 5 mg/kg; ED50 (male rat; IP): 25 mg/kg; ED50 (mice [13]; ip): 1.75 mg/kg; ED50 (rat [15]; ip): 25 mg/kg |
| O=C1CN=C(c2ccccc2)c2cc(Cl)ccc2N1 [Nor-diazepame, 7-Chloro-5-phenyl-2-oxo-2,3-dihydro-1H-benzo[f]-1,4-diazepine, reference compound] | 100 | 2.9 | – | – | 9 | – | 8.6 | 50 | – | – | – | – | 7.8 | – | – | 100 | – | 3.5 | – | 50 | Double box conditioning, effect in words (rats): Without effect; ED50 (mouse [14]): > 20 mg/kg |
| O=C(O)C1N=C(c2ccccc2)c2cc([N+](=O)[O-])ccc2NC1=O.[K+].[K+].[OH-].[OH-] (stereo not drawn) [4335 CB, 7-Nitro-2,3-dihydro-2-oxo-5-phenyl-1H-benzo[f]-1,4-diazepine-3-carboxylic acid, monopotassium salt, monopotassium hydroxide] | 100 | 0.44 | – | 50 | 3.2 | > 20 | 4.3 | 5 | 25 | strongly alkaline in reaction | – | 560 | 1.8 | 20 | > 20 | 10 | 25 | 1.25 | dissolves completely in water | 25 | Activity in different tests, especially as myorelaxants and anticonvulsants (central nervous system; different tests of Table VI): extremely active in different tests; Effect on the faculties of displacement (central nervous system; in vivo): less effect on the faculties of displacement; Effect in diminishing aggressiveness (male rat; test for combativeness): marked effect in diminishing aggressiveness |
